Tested on: A431 cells
Assay: Probe incubation, irradiation at 24 J/cm^2 and NucleoCounter NC-3000 cell vitality assay after about 24 hours
Type: cell-based, human
Conditions: for Cell Number / Cell Vitality: 24 J/cm^2, about 24 hours after irradiation, EGF probe 0.5 μM, panitumumab probe 0.1 μM
Description: A431 cells were plated and incubated with either probe for 5 minutes, 10 minutes or 20 minutes prior to washing and irradiation at 24 J/cm^2. […] After irradiation, the cells were cultured at 37° C., 5% CO2 for approximately 24 hours. The NucleoCounter® NC-3000™ cell vitality assay (Chemometec, Allerød, Denmark) was performed.

Substance: IRDye® 700DX-panitumumab
- Cell Number (5 minutes probe incubation): 675,000 cells/mL
- Cell Vitality (5 minutes probe incubation): 44.2%
- Cell Number (10 minutes probe incubation): 323,000 cells/mL
- Cell Vitality (10 minutes probe incubation): 34%
- Cell Number (20 minutes probe incubation): 550,000 cells/mL
- Cell Vitality (20 minutes probe incubation): 31%
- effect of longer incubation time on cell death (20 minutes vs. 5 minutes incubation, 24 J/cm^2): increased the number of cells undergoing cell death
- cell death averaged over the time periods (average over 5, 10 and 20 minutes incubation, 24 J/cm^2): about 60%

From patent US20150343060A1, “TREATMENT OF CIRCULATING TUMOR CELLS USING AN EXTRACORPOREAL DEVICE” (priority 2014, published 2015)
